In one test the target is T1, human glucagon-R (Homo sapiens, UniProt P47871).
T1 construct: expressed in transfected cells
The test can be described thus: Glucagon receptor efficacy assay (cAMP formation, FlashPlate cAMP kit). Type of test: cell-based. On the procedure:
(§1) The 5′-end primers additionally encoded a near Kozak consensus sequence to ensure efficient translation.
(§2) 48 hr after transfection, cells were seeded for limited dilution cloning and selected with 1 mg/ml G418 in the culture medium.
In general terms: Cyclic AMP is a second messenger, typically raised through Gs and lowered through Gi signalling.

The target in another test is T2, human GLP-1R (Homo sapiens, UniProt P43220).
T2 construct: expressed in transfected cells
Description: GLP-1 receptor efficacy assay (cAMP formation, FlashPlate cAMP kit). Particulars: HEK293 cells expressing human GLP-1R; cAMP formed, 15 min at 37° C. Type of test: cell-based. As to the method: as §1, §2

[1] abbreviates: HEK293 cells expressing human glucagon-R; cAMP formed, 15 min at 37° C.; read-out: EC50 nM) GluR.

Consider nine compounds from patent publication US9169310B2 (Zealand Pharma A/S, priority 2010, dated 2015).

The EC50 is the concentration giving half of the maximal effect.

Molecules are shown by their SMILES. Where two headings read alike, the source gives them in different places. Starred links: 1 amine or outer side, 2 acyl side, 3 side chain; linkers in the order of their positions; H or OH if unused. Non-standard residues stand in square brackets, D forms with d. Residues, ends and D or L forms follow the SMILES beside them. Groups on a side chain read outwards from the residue. *: point of attachment. Ala(pyrazol-1-yl) = N[C@@H](Cn1cccn1)C(=O)O; Ala(4-thiazolyl) = N[C@@H](Cc1cscn1)C(=O)O; γGlu = O=C(O)[C@H](CCC(=O)[*:2])N[*:1]; Palmitoyl = CCCCCCCCCCCCCCCC(=O)*; Aib = CC(C)(N)C(=O)O

T2 sequence (P43220 24-463): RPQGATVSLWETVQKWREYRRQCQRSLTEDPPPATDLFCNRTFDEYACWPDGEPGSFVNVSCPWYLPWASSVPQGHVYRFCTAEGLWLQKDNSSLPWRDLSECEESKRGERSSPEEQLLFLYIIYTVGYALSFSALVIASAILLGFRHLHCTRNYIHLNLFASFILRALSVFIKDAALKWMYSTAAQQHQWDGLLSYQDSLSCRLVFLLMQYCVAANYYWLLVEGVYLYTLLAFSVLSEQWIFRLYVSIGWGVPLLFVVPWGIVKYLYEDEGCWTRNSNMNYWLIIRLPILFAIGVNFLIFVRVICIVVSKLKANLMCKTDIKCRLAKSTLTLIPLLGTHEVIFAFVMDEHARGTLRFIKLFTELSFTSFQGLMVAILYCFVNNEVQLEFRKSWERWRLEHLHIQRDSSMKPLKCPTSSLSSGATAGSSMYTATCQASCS
T1 sequence (P47871 26-477): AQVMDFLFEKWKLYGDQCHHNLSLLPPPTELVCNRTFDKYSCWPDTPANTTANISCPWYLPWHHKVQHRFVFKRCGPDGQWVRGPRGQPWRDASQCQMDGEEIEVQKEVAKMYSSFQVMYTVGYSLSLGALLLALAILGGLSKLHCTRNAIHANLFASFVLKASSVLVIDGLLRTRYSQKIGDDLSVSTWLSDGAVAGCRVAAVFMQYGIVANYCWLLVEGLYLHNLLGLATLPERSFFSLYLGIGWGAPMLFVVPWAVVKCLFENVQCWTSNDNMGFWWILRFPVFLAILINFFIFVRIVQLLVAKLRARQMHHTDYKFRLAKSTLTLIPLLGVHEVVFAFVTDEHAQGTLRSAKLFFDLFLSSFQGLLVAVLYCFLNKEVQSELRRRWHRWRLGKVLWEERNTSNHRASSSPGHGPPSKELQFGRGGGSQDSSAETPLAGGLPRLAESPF

As for `CCCCCCCCCCCCCCCC(=O)N[C@@H](CCC(=O)NCCCC[C@H](NC(=O)[C@H](CO)NC(=O)[C@H](CC(=O)O)NC(=O)[C@H](CC(C)C)NC(=O)[C@H](Cc1ccc(O)cc1)NC(=O)[C@H](CCCCN)NC(=O)[C@H](CO)NC(=O)[C@H](Cc1ccc(O)cc1)NC(=O)[C@H](CC(=O)O)NC(=O)[C@H](CO)NC(=O)[C@@H](NC(=O)[C@H](Cc1ccccc1)NC(=O)[C@@H](NC(=O)CNC(=O)[C@H](CCC(=O)O)NC(=O)C(C)(C)NC(=O)[C@@H](N)Cc1c[nH]cn1)[C@@H](C)O)[C@@H](C)O)C(=O)N[C@@H](C)C(=O)N[C@@H](C)C(=O)N[C@@H](Cc1c[nH]cn1)C(=O)N[C@@H](CC(=O)O)C(=O)N[C@@H](Cc1ccccc1)C(=O)N[C@H](C(=O)N[C@@H](CCC(=O)O)C(=O)N[C@@H](Cc1c[nH]c2ccccc12)C(=O)N[C@@H](CC(C)C)C(=O)N[C@@H](CC(C)C)C(=O)N[C@@H](CO)C(=O)N[C@@H](C)C(N)=O)C(C)C)C(=O)O` [Compound 7] (H-H[Aib]EGTFTSDYSKYLDSK([γGlu-Palmitoyl])AAHDFVEWLLSA-NH2), the EC50 on human glucagon-R (setting [1]) came out at 26 nM. Regarding `CCCCCCCCCCCCCCCC(=O)N[C@@H](CCC(=O)NCCCC[C@H](NC(=O)[C@H](CO)NC(=O)[C@H](CC(=O)O)NC(=O)[C@H](CC(C)C)NC(=O)[C@H](Cc1ccc(O)cc1)NC(=O)[C@H](CCCCN)NC(=O)[C@H](CO)NC(=O)[C@H](Cc1ccc(O)cc1)NC(=O)[C@H](CC(=O)O)NC(=O)[C@H](CO)NC(=O)[C@@H](NC(=O)[C@H](Cc1ccccc1)NC(=O)[C@@H](NC(=O)CNC(=O)[C@@H](NC(=O)C(C)(C)NC(=O)[C@@H](N)Cc1c[nH]cn1)C(C)C)[C@@H](C)O)[C@@H](C)O)C(=O)N[C@@H](C)C(=O)N[C@@H](C)C(=O)N[C@@H](Cc1c[nH]cn1)C(=O)N[C@@H](CC(=O)O)C(=O)N[C@@H](Cc1ccccc1)C(=O)N[C@H](C(=O)N[C@@H](CCC(=O)O)C(=O)N[C@@H](Cc1c[nH]c2ccccc12)C(=O)N[C@@H](CC(C)C)C(=O)N[C@@H](CC(C)C)C(=O)N[C@@H](CO)C(=O)N[C@@H](C)C(N)=O)C(C)C)C(=O)O` [Compound 16] (H-H[Aib]VGTFTSDYSKYLDSK([γGlu-Palmitoyl])AAHDFVEWLLSA-NH2), the EC50 on human glucagon-R (setting [1]) was 3 nM.

For the compound `CCCCCCCCCCCCCCCC(=O)N[C@@H](CCC(=O)NCCCC[C@H](NC(=O)[C@H](CO)NC(=O)[C@H](CC(=O)O)NC(=O)[C@H](CC(C)C)NC(=O)[C@H](Cc1ccc(O)cc1)NC(=O)[C@H](CCCCN)NC(=O)[C@H](CO)NC(=O)[C@H](Cc1ccc(O)cc1)NC(=O)[C@H](CC(=O)O)NC(=O)[C@H](CO)NC(=O)[C@@H](NC(=O)[C@H](Cc1ccccc1)NC(=O)[C@@H](NC(=O)CNC(=O)[C@@H](NC(=O)C(C)(C)NC(=O)[C@@H](N)Cc1c[nH]cn1)[C@@H](C)CC)[C@@H](C)O)[C@@H](C)O)C(=O)N[C@@H](C)C(=O)N[C@@H](C)C(=O)N[C@@H](Cc1c[nH]cn1)C(=O)N[C@@H](CC(=O)O)C(=O)N[C@@H](Cc1ccccc1)C(=O)N[C@H](C(=O)N[C@@H](CCC(=O)O)C(=O)N[C@@H](Cc1c[nH]c2ccccc12)C(=O)N[C@@H](CC(C)C)C(=O)N[C@@H](CC(C)C)C(=O)N[C@@H](CO)C(=O)N[C@@H](C)C(N)=O)C(C)C)C(=O)O` [Compound 19] (H-H[Aib]IGTFTSDYSKYLDSK([γGlu-Palmitoyl])AAHDFVEWLLSA-NH2), the EC50 at human GLP-1R is 0.16 nM; on human glucagon-R (earlier determination, replaced by redetermination in Table 1, read-out: EC50 GluR, earlier determined value), 3 nM. For the compound `CCCCCCCCCCCCCCCC(=O)N[C@@H](CCC(=O)NCCCC[C@H](NC(=O)[C@H](CO)NC(=O)[C@H](CC(=O)O)NC(=O)[C@H](CC(C)C)NC(=O)[C@H](Cc1ccc(O)cc1)NC(=O)[C@H](CCCCN)NC(=O)[C@H](CO)NC(=O)[C@H](Cc1ccc(O)cc1)NC(=O)[C@H](CC(=O)O)NC(=O)[C@H](CO)NC(=O)[C@@H](NC(=O)[C@H](Cc1ccccc1)NC(=O)[C@@H](NC(=O)CNC(=O)CNC(=O)C(C)(C)NC(=O)[C@@H](N)Cc1c[nH]cn1)[C@@H](C)O)[C@@H](C)O)C(=O)N[C@@H](C)C(=O)N[C@@H](C)C(=O)N[C@@H](Cc1c[nH]cn1)C(=O)N[C@@H](CC(=O)O)C(=O)N[C@@H](Cc1ccccc1)C(=O)N[C@H](C(=O)N[C@@H](CCC(=O)O)C(=O)N[C@@H](Cc1c[nH]c2ccccc12)C(=O)N[C@@H](CC(C)C)C(=O)N[C@@H](CC(C)C)C(=O)N[C@@H](CO)C(=O)N[C@@H](C)C(N)=O)C(C)C)C(=O)O` [Compound 20] (H-H[Aib]GGTFTSDYSKYLDSK([γGlu-Palmitoyl])AAHDFVEWLLSA-NH2), the values for the EC50 at human GLP-1R and at human glucagon-R (setting [1]) were 0.21 nM and 26 nM, respectively. On to `CCCCCCCCCCCCCCCC(=O)N[C@@H](CCC(=O)NCCCC[C@H](NC(=O)[C@H](CO)NC(=O)[C@H](CC(=O)O)NC(=O)[C@H](CC(C)C)NC(=O)[C@H](Cc1ccc(O)cc1)NC(=O)[C@H](CCCCN)NC(=O)[C@H](CO)NC(=O)[C@H](Cc1ccc(O)cc1)NC(=O)[C@H](CC(=O)O)NC(=O)[C@H](CO)NC(=O)[C@@H](NC(=O)[C@H](Cc1ccccc1)NC(=O)[C@@H](NC(=O)[C@H](C)NC(=O)[C@H](CCC(N)=O)NC(=O)C(C)(C)NC(=O)[C@@H](N)Cc1c[nH]cn1)[C@@H](C)O)[C@@H](C)O)C(=O)N[C@@H](C)C(=O)N[C@@H](C)C(=O)N[C@@H](Cc1c[nH]cn1)C(=O)N[C@@H](CC(=O)O)C(=O)N[C@@H](Cc1ccccc1)C(=O)N[C@H](C(=O)N[C@@H](CCC(=O)O)C(=O)N[C@@H](Cc1c[nH]c2ccccc12)C(=O)N[C@@H](CC(C)C)C(=O)N[C@@H](CC(C)C)C(=O)N[C@@H](CO)C(=O)N[C@@H](C)C(N)=O)C(C)C)C(=O)O` [Compound 8] (H-H[Aib]QATFTSDYSKYLDSK([γGlu-Palmitoyl])AAHDFVEWLLSA-NH2), for which the EC50 on human glucagon-R (setting [1]) is 3 nM. For the compound `CCCCCCCCCCCCCCCC(=O)N[C@@H](CCC(=O)NCCCC[C@H](NC(=O)[C@H](CO)NC(=O)[C@H](CC(=O)O)NC(=O)[C@H](CC(C)C)NC(=O)[C@H](Cc1ccc(O)cc1)NC(=O)[C@H](CCCCN)NC(=O)[C@H](CO)NC(=O)[C@H](Cc1ccc(O)cc1)NC(=O)[C@H](CC(=O)O)NC(=O)[C@H](CO)NC(=O)[C@@H](NC(=O)[C@H](Cc1ccccc1)NC(=O)[C@@H](NC(=O)CNC(=O)[C@H](Cc1c[nH]cn1)NC(=O)C(C)(C)NC(=O)[C@@H](N)Cc1c[nH]cn1)[C@@H](C)O)[C@@H](C)O)C(=O)N[C@@H](C)C(=O)N[C@@H](C)C(=O)N[C@@H](Cc1c[nH]cn1)C(=O)N[C@@H](CCC(=O)O)C(=O)N[C@@H](Cc1ccccc1)C(=O)N[C@H](C(=O)N[C@@H](CCC(=O)O)C(=O)N[C@@H](Cc1c[nH]c2ccccc12)C(=O)N[C@@H](CC(C)C)C(=O)N[C@@H](CC(C)C)C(=O)N[C@@H](CCC(=O)O)C(=O)N[C@@H](C)C(N)=O)C(C)C)C(=O)O` [Compound 5] (H-H[Aib]HGTFTSDYSKYLDSK([γGlu-Palmitoyl])AAHEFVEWLLEA-NH2), the results for the EC50 on human GLP-1R and on human glucagon-R (setting [1]) were 0.16 nM and 0.15 nM, respectively.

For `CCCCCCCCCCCCCCCC(=O)N[C@@H](CCC(=O)NCCCC[C@H](NC(=O)[C@H](CO)NC(=O)[C@H](CC(=O)O)NC(=O)[C@H](CC(C)C)NC(=O)[C@H](Cc1ccc(O)cc1)NC(=O)[C@H](CCCCN)NC(=O)[C@H](CO)NC(=O)[C@H](Cc1ccc(O)cc1)NC(=O)[C@H](CC(=O)O)NC(=O)[C@H](CO)NC(=O)[C@@H](NC(=O)[C@H](Cc1ccccc1)NC(=O)[C@@H](NC(=O)CNC(=O)[C@H](Cn1cccn1)NC(=O)C(C)(C)NC(=O)[C@@H](N)Cc1c[nH]cn1)[C@@H](C)O)[C@@H](C)O)C(=O)N[C@@H](C)C(=O)N[C@@H](C)C(=O)N[C@@H](Cc1c[nH]cn1)C(=O)N[C@@H](CC(=O)O)C(=O)N[C@@H](Cc1ccccc1)C(=O)N[C@H](C(=O)N[C@@H](CCC(=O)O)C(=O)N[C@@H](Cc1c[nH]c2ccccc12)C(=O)N[C@@H](CC(C)C)C(=O)N[C@@H](CC(C)C)C(=O)N[C@@H](CO)C(=O)N[C@@H](C)C(N)=O)C(C)C)C(=O)O` [Compound 28] (H-H[Aib][Ala(pyrazol-1-yl)]GTFTSDYSKYLDSK([γGlu-Palmitoyl])AAHDFVEWLLSA-NH2), a half-maximal response at human GLP-1R (EC50) required 0.11 nM. `CCCCCCCCCCCCCCCC(=O)N[C@@H](CCC(=O)NCCCC[C@H](NC(=O)[C@H](CO)NC(=O)[C@H](CC(=O)O)NC(=O)[C@H](CC(C)C)NC(=O)[C@H](Cc1ccc(O)cc1)NC(=O)[C@H](CCCCN)NC(=O)[C@H](CO)NC(=O)[C@H](Cc1ccc(O)cc1)NC(=O)[C@H](CC(=O)O)NC(=O)[C@H](CO)NC(=O)[C@@H](NC(=O)[C@H](Cc1ccccc1)NC(=O)[C@@H](NC(=O)CNC(=O)[C@H](CO)NC(=O)C(C)(C)NC(=O)[C@@H](N)Cc1c[nH]cn1)[C@@H](C)O)[C@@H](C)O)C(=O)N[C@@H](C)C(=O)N[C@@H](C)C(=O)N[C@@H](Cc1c[nH]cn1)C(=O)N[C@@H](CC(=O)O)C(=O)N[C@@H](Cc1ccccc1)C(=O)N[C@H](C(=O)N[C@@H](CCC(=O)O)C(=O)N[C@@H](Cc1c[nH]c2ccccc12)C(=O)N[C@@H](CC(C)C)C(=O)N[C@@H](CC(C)C)C(=O)N[C@@H](CO)C(=O)N[C@@H](C)C(N)=O)C(C)C)C(=O)O` [Compound 18] (H-H[Aib]SGTFTSDYSKYLDSK([γGlu-Palmitoyl])AAHDFVEWLLSA-NH2) had an EC50 on human GLP-1R of 0.09 nM. Consider `CCCCCCCCCCCCCCCC(=O)N[C@@H](CCC(=O)NCCCC[C@H](NC(=O)[C@H](CO)NC(=O)[C@H](CC(=O)O)NC(=O)[C@H](CC(C)C)NC(=O)[C@H](Cc1ccc(O)cc1)NC(=O)[C@H](CCCCN)NC(=O)[C@H](CO)NC(=O)[C@H](Cc1ccc(O)cc1)NC(=O)[C@H](CC(=O)O)NC(=O)[C@H](CO)NC(=O)[C@@H](NC(=O)[C@H](Cc1ccccc1)NC(=O)[C@@H](NC(=O)CNC(=O)[C@H](Cc1cscn1)NC(=O)C(C)(C)NC(=O)[C@@H](N)Cc1c[nH]cn1)[C@@H](C)O)[C@@H](C)O)C(=O)N[C@@H](C)C(=O)N[C@@H](C)C(=O)N[C@@H](Cc1c[nH]cn1)C(=O)N[C@@H](CC(=O)O)C(=O)N[C@@H](Cc1ccccc1)C(=O)N[C@H](C(=O)N[C@@H](CCC(=O)O)C(=O)N[C@@H](Cc1c[nH]c2ccccc12)C(=O)N[C@@H](CC(C)C)C(=O)N[C@@H](CC(C)C)C(=O)N[C@@H](CO)C(=O)N[C@@H](C)C(N)=O)C(C)C)C(=O)O` [Compound 23] (H-H[Aib][Ala(4-thiazolyl)]GTFTSDYSKYLDSK([γGlu-Palmitoyl])AAHDFVEWLLSA-NH2), for which the EC50 at human GLP-1R turned out to be 0.11 nM.
